Source: patent US20220144812A1, “QUINOLINE DERIVATIVES AND THEIR USE FOR THE TREATMENT OF CANCER” (Epizyme, Inc., priority 2019, published 2022)
Read-outs that look alike come from different tables or passages of the source.

Experiments:
EP300 (P300(1048-1664)) = molecular target: T1, EP300 (P300(1048-1664)) (Homo sapiens, UniProt Q09472); test: Biochemical assay for EP300, SAMDI; conditions: read-out: EP300 Biochemistry IC50
T1 construct: P300(1048-1664)
T1 sequence (Q09472 1048-1664): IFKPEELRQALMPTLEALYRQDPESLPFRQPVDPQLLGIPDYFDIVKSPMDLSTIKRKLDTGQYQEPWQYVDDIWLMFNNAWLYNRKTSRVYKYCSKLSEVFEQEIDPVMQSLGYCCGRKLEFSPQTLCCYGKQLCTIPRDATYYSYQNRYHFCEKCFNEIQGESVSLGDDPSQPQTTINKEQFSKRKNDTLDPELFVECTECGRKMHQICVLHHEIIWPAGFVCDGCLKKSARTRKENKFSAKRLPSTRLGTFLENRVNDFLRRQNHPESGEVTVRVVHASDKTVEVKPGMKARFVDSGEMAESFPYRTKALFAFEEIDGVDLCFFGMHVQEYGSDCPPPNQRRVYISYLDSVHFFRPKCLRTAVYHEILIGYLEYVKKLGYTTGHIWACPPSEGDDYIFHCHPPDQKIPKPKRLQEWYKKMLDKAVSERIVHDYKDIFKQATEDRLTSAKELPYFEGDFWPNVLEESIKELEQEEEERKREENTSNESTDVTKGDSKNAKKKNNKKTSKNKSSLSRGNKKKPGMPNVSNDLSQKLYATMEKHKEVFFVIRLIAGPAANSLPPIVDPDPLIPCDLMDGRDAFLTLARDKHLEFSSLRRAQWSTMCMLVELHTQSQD
Text: The following example describes materials and methods relating to a biochemical assay for EP300. IC50 values (micromolar (μM)) are summarized in Table 1, Table 2, and Table 3 under the column labeled: “EP300 Biochemistry IC50 (micromolar).”

CREBBP (1084-1701) = molecular target: T2, CREBBP (1084-1701) (Homo sapiens, UniProt Q92793); test: Biochemical assay for CREBBP (1084-1701), SAMDI; conditions: read-out: CREBBP Biochemistry IC50
T2 construct: measured in the following biochemical assay using CREBBP (1084-1701); purchased
T2 sequence (Q92793 1084-1701): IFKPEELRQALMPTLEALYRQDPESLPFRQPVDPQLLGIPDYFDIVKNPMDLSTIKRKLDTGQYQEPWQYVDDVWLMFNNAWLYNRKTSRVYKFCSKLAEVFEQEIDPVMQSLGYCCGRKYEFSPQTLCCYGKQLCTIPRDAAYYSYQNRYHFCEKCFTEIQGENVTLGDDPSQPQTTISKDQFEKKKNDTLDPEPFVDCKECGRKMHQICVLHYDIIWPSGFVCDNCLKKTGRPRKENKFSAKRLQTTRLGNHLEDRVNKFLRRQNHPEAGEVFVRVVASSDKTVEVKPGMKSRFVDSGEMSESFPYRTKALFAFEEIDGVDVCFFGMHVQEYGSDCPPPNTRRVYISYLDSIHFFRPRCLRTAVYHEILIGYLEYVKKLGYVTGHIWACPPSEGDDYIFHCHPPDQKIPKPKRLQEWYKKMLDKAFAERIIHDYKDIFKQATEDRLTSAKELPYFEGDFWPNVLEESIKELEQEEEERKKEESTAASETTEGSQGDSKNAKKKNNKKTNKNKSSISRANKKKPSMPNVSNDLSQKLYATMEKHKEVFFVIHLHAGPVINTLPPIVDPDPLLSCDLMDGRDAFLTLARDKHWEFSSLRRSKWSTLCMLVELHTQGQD
Procedure, shortened: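 Acetyltransferase activity measured by SAMDI mass spectrometry after capture on biochip. Enzyme sat with compound 30 min at RT before acetyl-CoA and biotinylated H3 11-25 (K14R, K23R) peptide were added for 30 min at RT. Formic acid quench, bicarbonate neutralisation; IC50 values reported.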

[1] = test system: H3K18Ac in HB-CLS-2 cells; test: H3K18AC in-cell western (ICW) assay; format: cell-based; conditions: read-out: CREBBP ICW IC50
Procedure, shortened: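 In-cell western: after methanol fixation, blocking, overnight 4° C anti-H3K18Ac staining, then 800CW secondary plus DRAQ5 for DNA content, integrated intensities were scanned at 800 and 700 nm. Before this, compound exposure lasted 2 hr at 37° C in HB-CLS-2 cells plated 16–24 hours earlier. Values expressed as IC50 (μM).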

647V cells = test: High throughput proliferation (HTP) assay; format: cell-based; conditions: read-out: CREBBP HTP IC50
Procedure, shortened: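 Proliferation IC50 (micromolar) derived from a 7-day CellTiter-Glo viable-cell readout in 647V cells exposed, in triplicate, to rising compound concentrations; cells grown in DMEM plus 15% heat-inactivated FBS at 37° C under 5% CO2.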

[2] = Homo sapiens, 647-V, high throughput proliferation
[3] = H3K18Ac in-cell western, HB-CLS-2 cells
[4] = Homo sapiens, 647-V, high throughput proliferation, 647V cells

| SMILES | IC50 (EP300 (P300(1048-1664)); EP300, SAMDI) [nM] | IC50 (CREBBP (1084-1701); SAMDI) [nM] | IC50 ([1]; H3K18Ac in-cell western) [nM] | IC50 [1, 3] [nM] | IC50 (EP300 (P300(1048-1664)); P300(1048-1664), Peptide #233, Ac-CoA, SAMDI mass spectrometry) [nM] | IC50 (CREBBP (1084-1701); Peptide #233, Acetyl-CoA, SAMDI mass spectrometry) [nM] | IC50 ([1]; 2 h, H3K18Ac in HB-CLS-2 cells, 2 hrs compound incubation) [nM] | IC50 (647V cells; [2]) [nM] | IC50 (647V cells; high throughput proliferation) [nM] | IC50 (647V cells; [4]) [nM] | IC50 (647V cells; Homo sapiens, 647-V, 168 h, 647V cells, day 7, CellTiter-Glo) [nM] |
| --- | --- | --- | --- | --- | --- | --- | --- | --- | --- | --- | --- |
| CCn1ncc(CN(C)C(=O)c2nc(-c3cccc(-c4ccn[nH]4)c3)nc3ccc(Cl)cc23)c1C [Compound 145] | 1900 | 2800 | 6500 |  |  |  |  |  | 9900 |  |  |
| CCn1ncc(CN(C)C(=O)c2cc(-n3ncc4c3CNCC4)nc3ccc(Cl)cc23)c1C [Compound 186] | 64000 | 114000 | 20000 |  |  |  |  | 7800 |  |  |  |
| CCn1ncc(CN(C)C(=O)c2nc(-c3ccc(OCCO)c(Cl)c3)nc3ccc(Cl)cc23)c1C [Compound 41] | 250 | 62 | 370 |  |  |  |  | 160 |  |  |  |
| CCn1ncc(CN(C)C(=O)c2nc(-c3cc(Cl)cc(NCCCNC)c3)nc3ccc(Cl)cc23)c1C [Compound 50] | 5 | 16 | 480 |  |  |  |  |  | 150 |  |  |
| CCn1ncc(CN(C)C(=O)c2cc(-c3ccc(NCCNC)c(C)n3)nc3ccc(Cl)cc23)c1C1CC1 [Compound 553] | 535 | 52.5 | 466 |  |  |  |  | 763 |  |  |  |
| CCn1ncc(CN(C)C(=O)c2cc(-c3ccc(NCCNC)nn3)nc3ccc(Cl)cc23)c1C [Compound 504] | 2000 | 5780 | 3990 |  |  |  |  | 3730 |  |  |  |
| Cc1nc(-c2cc(C(=O)N(C)Cc3cn(C)c(CC(F)(F)F)n3)c3cc(Cl)ccc3n2)ccc1NCCN(C)C [Compound 626] | 4240 | 3310 | 3210 |  |  |  |  | 5780 |  |  |  |
| CCc1nc(-c2cc(C(=O)N(C)Cc3onc(CC)c3C)c3cc(COC)ccc3n2)ccc1NCCN(C)C [Compound 593] | 175 | 53.9 | 170 |  |  |  |  | 103 |  |  |  |
| CCn1ncc(CN(C)C(=O)c2nc(-c3ccc4nc[nH]c4c3Cl)nc3ccc(COC)cc23)c1C [Compound 89] | 1000 | 180 | 1600 |  |  |  |  | 1200 |  |  |  |
| Cc1nc(-c2cc(C(=O)N(C)Cc3cnc(C4CC4)n3C)c3cc(Cl)ccc3n2)ccc1NC1CCN(C)C1 (stereo not shown) [Compound 640] |  |  |  |  | 9 | 24.6 | 135 |  |  |  | 48.7 |
| CCn1ncc(CN(C)C(=O)c2nc(-c3cc4nc[nH]c4cc3Cl)nc3ccc(Cl)cc23)c1C [Compound 26] | 170 | 84 | 210 |  |  |  |  | 130 |  |  |  |
| CCN(Cc1cnn(CC)c1C)C(=O)c1cc(-c2ccc(NCCNC)c(C)n2)nc2ccc(Cl)cc12 [Compound 456] | 880 | 104 | 1410 |  |  |  |  | 626 |  |  |  |
| CCn1ncc(CN(C)C(=O)c2nc(-c3ccnc(NC)c3)nc3ccc(Cl)cc23)c1C [Compound 155] | 26000 | 35000 | 9300 |  |  |  |  | 5000 |  |  |  |
| CCn1ncc(CN(C)C(=O)c2nc(-c3ccc4[nH]nnc4c3)nc3ccc(Cl)cc23)c1C [Compound 133] | 470 | 100 | 4900 |  |  |  |  | 5900 |  |  |  |
| CCn1ncc(CN(C)C(=O)c2nc(-c3cc(C)cc(NC4CNCC4(F)F)c3)nc3ccc(Cl)cc23)c1C (stereo not shown) [Compound 554] | 173 | 53.5 | 1070 |  |  |  |  | 1670 |  |  |  |
| CCn1ncc(CN(C)C(=O)c2nc(-c3ccc(OCCNC)c(Cl)c3)nc3ccc(OC)cc23)c1C [Compound 152] | 3600 | 3600 | 8900 |  |  |  |  | 1600 |  |  |  |
| CCn1ncc(CN(C)C(=O)c2nc(-c3cc(Cl)cc(CN4CCNCC4)c3)nc3ccc(Cl)cc23)c1C [Compound 124] | 1400 | 370 | 3900 |  |  |  |  | 4100 |  |  |  |
| CCc1noc(C(C)N(C)C(=O)c2nc(-c3cc4c(NC)[nH]nc4cc3C)nc3ccc(Cl)cc23)c1C (stereo not shown) [Compound 622] | 383 | 107 | 1320 |  |  |  |  | 2300 |  |  |  |
| CCn1ncc(CN(C)C(=O)c2nc(-c3ccnc(N)c3)nc3ccc(Cl)cc23)c1C [Compound 77] | 1300 | 1600 | 1100 |  |  |  |  | 760 |  |  |  |
| CCn1ncc(CN(C)C(=O)c2nc(-c3cc(Cl)cc(CNC4CCNCC4)c3)nc3ccc(Cl)cc23)c1C [Compound 394] | 3800 | 2000 |  | 5400 |  |  |  |  |  | 4200 |  |

The remaining compounds from weak to strong by IC50 (EP300 (P300(1048-1664)); EP300, SAMDI), led by results:

| IC50 (EP300 (P300(1048-1664)); EP300, SAMDI) [nM] | IC50 (CREBBP (1084-1701); SAMDI) [nM] | IC50 ([1]; H3K18Ac in-cell western) [nM] | IC50 [1, 3] [nM] | IC50 (EP300 (P300(1048-1664)); P300(1048-1664), Peptide #233, Ac-CoA, SAMDI mass spectrometry) [nM] | IC50 (CREBBP (1084-1701); Peptide #233, Acetyl-CoA, SAMDI mass spectrometry) [nM] | IC50 ([1]; 2 h, H3K18Ac in HB-CLS-2 cells, 2 hrs compound incubation) [nM] | SMILES | IC50 (647V cells; [2]) [nM] | IC50 (647V cells; high throughput proliferation) [nM] | IC50 (647V cells; [4]) [nM] | IC50 (647V cells; Homo sapiens, 647-V, 168 h, 647V cells, day 7, CellTiter-Glo) [nM] |
| --- | --- | --- | --- | --- | --- | --- | --- | --- | --- | --- | --- |
| 83 | 27 | 380 |  |  |  |  | CCn1ncc(CN(C)C(=O)c2nc(-c3cc(C)c4n[nH]cc4c3)nc3ccc(Cl)cc23)c1C [Compound 44] | 270 |  |  |  |
| 43.9 | 65.9 | 176 |  |  |  |  | CCc1nc(-c2cc(C(=O)N(C)Cc3cnc(CC)n3C)c3cc(COC)ccc3n2)ccc1NCCN(C)C [Compound 580] | 130 |  |  |  |
| 37 | 37 |  | 270 |  |  |  | CCn1ncc(CN(C)C(=O)c2cc(-c3ccc(NCC(=O)NC)c(C)n3)nc3ccc(Cl)cc23)c1C [Compound 395] |  |  | 410 |  |
| 31.1 | 23.6 | 127 |  |  |  |  | CCn1ncc(CN(C)C(=O)c2cc(-c3ccc(NCCOC)c(C)n3)nc3ccc(Cl)cc23)c1C [Compound 568] | 260 |  |  |  |
| 16.8 | 34 | 256 |  |  |  |  | CCc1ncc(CN(C)C(=O)c2cc(-c3cc(-c4ncc[nH]4)n(C)n3)nc3ccc(COC)cc23)n1C [Compound 629] | 292 |  |  |  |
| 11.2 | 19.1 | 53.8 |  |  |  |  | CCc1noc(CN(C)C(=O)c2cc(-c3ccc(NC4CN(C)C4)c(C)n3)nc3ccc(Cl)cc23)c1C [Compound 613] | 51.8 |  |  |  |
| 10.9 | 35.5 | 4500 |  |  |  |  | CCn1ncc(CN(C)C(=O)c2cc(-c3ccc(NCC(CN(C)C)OC)c(C)n3)nc3ccc(Cl)cc23)c1C (stereo not shown) [Compound 592] | 7230 |  |  |  |
| 10.4 | 20.7 | 137 |  |  |  |  | CCn1ncc(CN(C)C(=O)c2cc(-c3ccc(NCCNS(C)(=O)=O)c(C)n3)nc3ccc(Cl)cc23)c1C [Compound 529] | 238 |  |  |  |
| 6.6 | 18 | 46.3 |  |  |  |  | CCn1ncc(CN(C)C(=O)c2nc(-c3cc4c(NC)[nH]nc4cc3C)nc3ccc(C)cc23)c1C [Compound 612] | 40.9 |  |  |  |
| 6.1 | 3.4 | 300 |  |  |  |  | CCc1ncc(CN(C)C(=O)c2nc(-c3cccc(Cl)c3)nc3ccc(Cl)cc23)n1C [Compound 37] | 290 |  |  |  |
| 5.7 | 15.5 | 188 |  |  |  |  | CCn1ncc(CN(C)C(=O)c2cc(-c3ccc(NCC(O)CNC)c(C)n3)nc3ccc(Cl)cc23)c1C (stereo not shown) [Compound 457] | 41.7 |  |  |  |
| 5.2 | 7.82 | 74.5 |  |  |  |  | CCn1ncc(CN(C)C(=O)c2cc(-c3cc4n[nH]cc4cn3)nc3ccc(Cl)cc23)c1C [Compound 437] | 119 |  |  |  |
| 3.2 | 3.2 | 270 |  |  |  |  | CCn1ncc(CN(C)C(=O)c2nc(-c3cc(Cl)cc(NC(=O)NC)c3)nc3ccc(Cl)cc23)c1C [Compound 34] | 200 |  |  |  |
| 2.4 | 6.92 | 53.5 |  |  |  |  | CCn1ncc(CN(C)C(=O)c2cc(-c3cc(-c4ncc[nH]4)n(C)n3)nc3ccc(Cl)cc23)c1C [Compound 542] | 56.6 |  |  |  |
